# Measured values as given in patent publication EP0969013B1, “Peptides for inhibiting HPV E7 proteins” (Deutsches Krebsforschungszentrum Stiftung des öffentlichen …, priority 1998, dated 2003).
# Peptide text beside a SMILES is read from it.
# What was measured:
# Format in all cases: cell-based
# E7/2 cells [1] = assay: Growth rate of E7/2 cells (cell number); conditions: 10 µM - 200 µM penetratin-fused synthesized peptide, 1 hour to 72 hours
# Method: (§1) • (A) Peptide No. 732 is chemically synthesized with a leader attached to the NH2 end and supporting the incorporation into cells. It is penetratin and originates from Drosophila antennapedia. Thus, peptide No. 732 is available as fusion polypeptide and has the following sequence: [formula] Cells are used in which HPV16 E7 is expressed and whose growth depends thereon. Such cells are e.g. E7/2 cells. They are transfected with 10 µM - 200 µM of the synthesized peptide No. 732. Growth rate, apoptosis and cell cycle profiles of the cells are determined 1 hour to 72 hours after the transfection. The former is effected by determining the cell number. As regards the second test, reference is made to Example 2 (A). As to the latter test, the cell DNA is stained with propidium iodide and its content is determined in a FACscan. On the basis thereof, the cell cycle profile is assessed by means of the CellQuest program (Schulze, A. et al., Proc. Natl. Acad. Sci, U.S.A. 92, (1995), 11264-11268), the number of cells in the S phase being taken as a marker for the cell proliferation. […] For this purpose, the BamHI/NdeI fragment (cf. Example 1) of pJM-1 is inserted in the vector pET 19b (Novagen company) so as to obtain the vector pH6-732. Thereafter, cleavage is carried out by means of Ndel and a TAT-cDNA of HIV-1 (Vives, E. et al., J. Biol. Chem. 272, (1997), 16010-16017) is inserted. […]
# E7/2 cells [2] = assay: Apoptosis of E7/2 cells (propidium iodide, FACscan); conditions: 10 µM - 200 µM penetratin-fused synthesized peptide, 1 hour to 72 hours
# Method: 24 hours after the transfection, the cells are fixed and stained using propidium iodide. The cells are analyzed in a FACscan by measuring the fluorescence caused by propidium iodide. Apoptotic nuclei are shown as nuclei having a DNA content of less than 2N. The amount of apoptotic nuclei is determined in comparison with normal nuclei.
# • (A) Peptide No. 732 is chemically synthesized with a leader attached to the NH2 end and supporting the incorporation into cells. It is penetratin and originates from Drosophila antennapedia. Thus, peptide No. 732 is available as fusion polypeptide and has the following sequence: [formula] Cells are used in which HPV16 E7 is expressed and whose growth depends thereon. Such cells are e.g. E7/2 cells. They are transfected with 10 µM - 200 µM of the synthesized peptide No. 732. Growth rate, apoptosis and cell cycle profiles of the cells are determined 1 hour to 72 hours after the transfection. The former is effected by determining the cell number. […] As to the latter test, the cell DNA is stained with propidium iodide and its content is determined in a FACscan. On the basis thereof, the cell cycle profile is assessed by means of the CellQuest program (Schulze, A. et al., Proc. Natl. Acad. Sci, U.S.A. 92, (1995), 11264-11268), the number of cells in the S phase being taken as a marker for the cell proliferation. […]
# E7/2 cells [3] = assay: Cell cycle profile of E7/2 cells (propidium iodide, FACscan, CellQuest); conditions: 10 µM - 200 µM penetratin-fused synthesized peptide, 1 hour to 72 hours, marker for cell proliferation
# Method: as §1
compound,measurement,setting,value
CC[C@H](C)[C@H](NC(=O)[C@H](CCCCN)NC(=O)[C@H](CCCCN)NC(=O)[C@H](Cc1c[nH]c2ccccc12)NC(=O)[C@H](CCCCN)NC(=O)[C@H](CCSC)NC(=O)[C@H](CCCNC(=N)N)NC(=O)[C@H](CCCNC(=N)N)NC(=O)[C@H](CC(N)=O)NC(=O)[C@H](CCC(N)=O)NC(=O)[C@H](Cc1ccccc1)NC(=O)[C@H](Cc1c[nH]c2ccccc12)NC(=O)[C@@H](NC(=O)[C@H](CCCCN)NC(=O)[C@@H](NC(=O)[C@H](CCC(N)=O)NC(=O)[C@@H](N)CCCNC(=N)N)[C@@H](C)CC)[C@@H](C)CC)C(=O)N[C@@H](C)C(=O)N[C@@H](C)C(=O)N[C@@H](CCCNC(=N)N)C(=O)N[C@@H](CC(C)C)C(=O)N[C@@H](CCCNC(=N)N)C(=O)N[C@@H](CC(C)C)C(=O)N[C@@H](CCCNC(=N)N)C(=O)N[C@@H](CS)C(=O)NCC(=O)N[C@H](C(=O)N[C@H](C(=O)N[C@@H](CC(C)C)C(=O)N[C@@H](CC(C)C)C(=O)N[C@@H](CC(C)C)C(=O)N[C@@H](CS)C(=O)N[C@H](C(=O)N[C@@H](CC(C)C)C(=O)N[C@@H](CC(=O)O)C(=O)N[C@@H](CC(C)C)C(=O)O)[C@@H](C)O)[C@@H](C)CC)C(C)C [peptide No. 732] (H-RQIKIWFQNRRMKWKKIAARLRLRCGVILLLCTLDL-OH),growth rate,E7/2 cells [1],reduces the growth rate
same,apoptosis frequency,E7/2 cells [2],lowers the apoptosis frequency
same,number of cells in the S phase,E7/2 cells [3],reduces the number of cells in the S phase
